Molecules are shown by their SMILES.

This note sets out measurements from patent US8410152B2 (Max-Planck-Gesellschaft zur Forderung der Wissenschaften e. …, priority 2006, dated 2013).

One data set concerns uninduced N2A cells. It counts as cell-based. Conditions: cell death as percent of LDH released into medium vs total LDH, compound 10 μM. Put shortly:
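Compound at 10 μM final was added to uninduced N2A cells. LDH activity was read at 492 nm. Cell death was expressed as percent LDH released into medium relative to total LDH after full cell lysis.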
A general note: LDH leaks from cells whose membrane has failed.

The target in the next data set is tau construct K18 (Homo sapiens, UniProt P10636). The experiment in a line: STD-NMR determination of dissociation constant. The settings on record: STD-NMR titration data for proton I, 10 μM soluble K18, PBS/D2O, 295 K; read-out: KD of K18-BSc3094 complex. It counts as binding. How it is done: STD-NMR: All STD NMR experiments were made in 3 mm Match® tubes in a 700 MHz spectrometer with cryogenic probe head at 295 K. The quantity of protein was kept small by the small diameter of the sample tubes. The spectra were measured with a spectral width of 11.0208 ppm and 32k data points with application of the WATERGATE water suppression (w5-sequence). The suppression of the protein resonances was reached by a spin lock pulse with a length of 15 ms and a attenuation of 11 dB. We used a pulse program in which the presaturation was accomplished alternating after each scan for the on and off resonance experiment at the selected frequencies. Thus artefacts are prevented during the difference formation due to in homogeneities. As point of irradiation for the on resonance experiments we selected 540 Hz (0.77 ppm). As point of irradiating for the off resonance experiments 40,000 Hz (57.1 ppm) was selected. The saturation duration in all experiments was 4 seconds, the attenuation of the saturation power 45 dB. 2044 scans were collected per experiment. After phase correction the FID was multiplied by an exponential function to improve the signal to noise ratio, which caused a line broadening of 1 Hz.
For the determination of the dissociation constant a sample with 10 μM soluble K18 and 80 μM DTT-d6 in 200 μL PBS/D2O was prepared. […]

The subject of a further data set is N2a/K18ΔK280 cells. Briefly: Tau aggregation and inhibition assay in cells (ThS staining). It counts as cell-based. Conditions: 120 h; N2a/K18ΔK280 cells, compound 10 μM with doxycyclin, 5 days, ThS-positive cells scored; read-out: Inhibition in cells. As for the experimental part: Selection of an N2a, Tet-On, G418-resistant cell line: N2a cells were cotransfected with both the pUHD172-1 plasmid (encoding the rtTA, obtained from H. Bujard, Heidelberg) and pEU-1 plasmid (encoding G418 resistance, a derivative of pRc/CMV, Invitrogen) (ratio 20:1; 1 μg/well of 6-well plates) using the DOTAP transfection reagent (Roche, Basel, CH). The cells were cultured in Eagle's Minimum Essential Medium (MEM) supplemented with 10% defined fetal bovine serum and subjected to G418 (600 μg/ml) and selection. The cells were fed with fresh media every 4 days for 3-4 weeks when single colonies appeared. Clones were tested for the induction level by transient transfection of pUHG 16-3 plasmid and the induction of β-galactosidase was measured.
Generation of inducible Tet-On cell lines: The DNA fragments encoding the appropriate tau constructs (K18WT, K18ΔK280, K18/ΔK280/PP) were inserted into the bidirectional vector pBI-5 between ClaI and SalI restriction sites (pBI-5 is an unpublished derivative of pBI-2, Baron et al., 1995). The pBI-5/K18-derived plasmids with pX343 (plasmid encoding the hygromycin resistance) were used for cotransfection of N2a/Tet-On, G418-resistant cells with the aid of DOTAP (20:1 plasmid ratio; 1 μg/well of 6-well plates). The cells were seeded at 4×10^5 cells per well. On the following day cells were transferred to 100-mm dishes and selected with 100 μg/ml of hygromycin and 600 μg/ml of G418. Clonal cell lines were screened for the inducible expression of K18 derivatives by measuring luciferase activity with the luciferase assay and immunofluorescence for tau protein with the polyclonal pan-tau antibody K9JA.
Induction of K18-derivatives in Tet-On N2a cells: The inducible N2a/K18-derivatives cells were cultured in MEM medium supplemented with 10% fetal calf serum, 2 mM glutamine and 0.1% nonessential amino acids. The expression of K18 constructs was induced by adding 1 μg doxycyclin (Dox) per 1 ml medium. The induction was continued for 7-11 days, the medium was changed 3 times (always complemented with doxycyclin). For tau solubility assays the cells were collected by pelleting during centrifugation at 1000×g for 5 min. The levels and solubility of tau K18/ΔK280 were determined following Greenberg and Davies (1990). The cells were homogenized (DIAX900, Heidolph, Schwabach, Germany) in 10 vol (w/v) of buffer consisting of 10 mM Tris-HCl (pH 7.4), 0.8 M NaCl, 1 mM EGTA, and 10% sucrose. The homogenate was spun for 20 min at 20000×g, and the supernatant was retained. The pellet was re-homogenized in 5 vol of homogenization buffer and re-centrifuged. Both supernatants were combined, brought to 1% N-laurylsarkosinate (w/v) and incubated for 1 hr at room temperature while shaking, followed by centrifugation at 100 000×g for 1 hr. The sarkosyl-insoluble pellets were resuspended in 50 mM Tris-HCl (pH 7.4), 0.5 ml per 1 g of starting material. The supernatant and sarkosyl-insoluble pellet samples were analyzed by Western blotting. The amount of material loaded for supernatant and sarkosyl-insoluble pellet represented about 0.5% and 15% of the total material present in the supernatant and pellet respectively (the ratio between supernatant and sarkosyl insoluble pellet was always 1:30). For quantification of tau levels in each fraction, the Western blots were probed with pan-tau antibody K9JA and analyzed by densitometry (LAS 3000 and AIDA software, Raytest, Straubenhardt, Germany).
Quantitation of tau aggregation in cells by Thioflavin S (ThS) staining: Tet-On inducible undifferentiated N2a cells were treated with 1 μg/ml doxycyclin for 5, 7 or 9 days in a culture dish. After that the cells were trypsinized and transferred to coverslips and incubated overnight. The cells on the coverslips were fixed with 4% paraformaldehyde in PBS for 15 min, then permeabilized with 80% MeOH for 6 min at −20° C., and incubated with 0.1% Thioflavin S for 5 min and washed three times in ethanol (50%). […]

A further data set has as its target tau construct K19 (Homo sapiens, UniProt P10636). The experiment in a line: Thioflavine S (ThS) assay for aggregation of tau. It is filed as biochemical. The settings on record: 10 μM tau construct K19, 2.5 μM heparin, ThS fluorescence. As for the experimental part:
Thioflavine S (ThS) Assay for aggregation of tau: 10 μM of the tau construct K19 were incubated with compounds in a concentration range from 1 nM up to 200 μM in the presence of 2.5 μM heparin in 50 mM NH4Ac buffer over night at 37° C. After addition of 20 μM ThS the signal was measured at 521 nm (emission) at an excitation wavelength of 440 nm. The results of this assay are presented in the IC50 column and DC50 column of Table 1 below.

Chain of tau construct K19 (P10636 with tags, fused parts or gaps isoform P10636-2 limits assumed): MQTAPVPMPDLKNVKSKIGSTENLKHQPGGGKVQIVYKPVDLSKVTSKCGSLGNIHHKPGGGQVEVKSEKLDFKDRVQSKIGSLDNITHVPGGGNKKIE
Chain of tau construct K18 (P10636 with tags, fused parts or gaps isoform P10636-8 limits assumed): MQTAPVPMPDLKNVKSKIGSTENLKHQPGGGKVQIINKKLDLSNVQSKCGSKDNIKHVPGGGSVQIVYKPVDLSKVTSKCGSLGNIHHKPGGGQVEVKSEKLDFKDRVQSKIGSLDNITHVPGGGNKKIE

The term Kd denotes a measure of binding affinity in units of concentration. Broadly, the inhibition is the relative decrease from the control value, in per cent. With `O=C(NNc1nc(-c2ccc([N+](=O)[O-])cc2)cs1)c1ccc2[nH]cnc2c1` [Comp. 8, N′-[4-(4-Nitrophenyl)-1,3-thiazol-2-yl]-1H-benzimidazole-5-carbohydrazide], the LDH with uninduced N2A cells was 5.2%. Further, the Kd at tau construct K18 is 62000 ± 12000 nM. The inhibition at 10 µM in the data set with N2a/K18ΔK280 cells came to 82.2%. The DC50 on tau construct K19 (read-out: DC50) worked out at 700 nM. Further, on tau construct K19 (over night at 37° C., read-out: ID50 (the source's name)), the IC50 came to 1600 nM.
